The source of these data is DBAASP.

Common to all, as to assay: ≥ marks a high value that may be exact or a test limit, other limits are often not marked, values filed in µg/mL are converted to µM
In experiment [1] the test system is Streptococcus pneumoniae ATCC 49619.
The test system of experiment [2] is Pseudomonas aeruginosa ATCC 19660.
For experiment [3], the system named is Staphylococcus aureus ATCC 33591.
Experiment [4] deals with Enterococcus faecium ATCC 700221.
The subject of experiment [5] is Staphylococcus epidermidis ATCC 51625.
The subject of experiment [6] is Pseudomonas aeruginosa ATCC 27853.
Experiment [7] concerns Klebsiella aerogenes ATCC 13048.
Experiment [8] relates to Acinetobacter baumannii ATCC 17978D-5.
Experiment [9] deals with Shigella boydii MTCC 11947.
Experiment [10] has as its system Citrobacter koseri MTCC 1657.
The subject of experiment [11] is Bordetella bronchiseptica MTCC 6837.
For experiment [12], the system named is Stenotrophomonas maltophilia MTCC 1890.
Experiment [13] concerns Haemophilus influenzae MTCC 621.
The subject of experiment [14] is Escherichia coli K12 MG1655.
The test system of experiment [15] is Salmonella enterica MTCC 9844.
The test system of experiment [16] is Proteus vulgaris MTCC 1771.
Experiment [17] concerns Klebsiella pneumoniae MTCC 7407.
For experiment [18], the system named is Staphylococcus aureus MTCC 3160.
For experiment [19], the system named is Enterococcus faecalis MTCC 439.
Experiment [20] deals with Salmonella enterica subsp. enterica serovar Typhimurium ATCC 14028.
In experiment [21] the test system is Citrobacter freundii MTCC 1658.
Experiment [22] deals with Alcaligenes faecalis MTCC 1937.
The subject of experiment [23] is Vibrio cholerae MTCC 3904.
Experiment [24] relates to Klebsiella aerogenes MTCC 111.
Experiment [25] relates to Acinetobacter baumannii MTCC 9829.
For experiment [26], the system named is Shigella flexneri MTCC 1457.
For experiment [27], the system named is Proteus mirabilis MTCC 3158.
Experiment [28] concerns Klebsiella oxytoca MTCC 2275.
The subject of experiment [29] is Pluralibacter gergoviae MTCC 3826.
For experiment [30], the system named is Pseudomonas aeruginosa MTCC 3542.
The subject of experiment [31] is Staphylococcus haemolyticus MTCC 3383.
For experiment [32], the system named is Corynebacterium glutamicum MTCC 2679.
Experiment [33] has as its system Alkalihalobacillus alcalophilus MTCC 860.
The subject of another experiment is Pseudomonas aeruginosa.
The subject of experiment [34] is Stenotrophomonas maltophilia.
For experiment [35], the system named is Achromobacter xylosoxidans.

Each structure is given as a SMILES string. ≈ marks a conversion by molar mass, not a printed value. Where only a bound is given, the exact number is not on record here.

For `C[C@H](NC(=O)[C@H](Cc1ccccc1)NC(=O)[C@H](C)NC(=O)[C@@H](N)Cc1ccccc1)C(=O)N[C@@H](Cc1ccccc1)C(=O)N[C@@H](CCCCN)C(=O)N[C@@H](C)C(=O)N[C@@H](Cc1ccccc1)C(=O)N[C@@H](CCCCN)C(=O)N[C@@H](CCCCN)C(=O)N[C@@H](C)C(=O)N[C@@H](Cc1ccccc1)C(=O)N[C@@H](CCCCN)C(=O)N[C@@H](CCCCN)C(=O)N[C@@H](Cc1ccccc1)C(=O)N[C@@H](CCCCN)C(=O)N[C@@H](CCCCN)C(=O)N[C@@H](C)C(=O)N[C@@H](Cc1ccccc1)C(=O)N[C@@H](CCCCN)C(=O)N[C@@H](CCCCN)C(=O)N[C@@H](C)C(=O)N[C@@H](Cc1ccccc1)C(=O)NCC(=O)N1CCC[C@H]1C(=O)N[C@@H](CS)C(=O)O` [FAFAFKAFKKAFKKFKKAFKKAFGPC], the MIC is 21.1 µM (≈ 64 µg/mL) in experiment [1]; 21.1 µM (≈ 64 µg/mL) in [2]; 21.1 µM (≈ 64 µg/mL) in [3]; 21.1 µM (≈ 64 µg/mL) in experiment [4]; 21.1 µM (≈ 64 µg/mL) in experiment [5]; greater than 21.1 µM in experiment [6]. Besides, the MIC in [7] and in experiment [8] was 21.1 µM (≈ 64 µg/mL) throughout.
On to `CC[C@H](C)[C@H](NC(=O)[C@H](CCCCN)NC(=O)[C@H](Cc1ccccc1)NC(=O)[C@H](C)NC(=O)[C@H](C)NC(=O)[C@H](CCCCN)NC(=O)[C@@H](NC(=O)[C@H](CC(C)C)NC(=O)CNC(=O)[C@H](CCCCN)NC(=O)[C@H](Cc1c[nH]c2ccccc12)NC(=O)[C@@H](N)Cc1ccccc1)C(C)C)C(=O)N[C@H](C(=O)N[C@@H](Cc1cnc[nH]1)C(=O)N[C@@H](C)C(=O)NCC(=O)N[C@@H](CO)C(=O)O)C(C)C` [FWKGLVKAAFKIVHAGS], for which the MIC in experiment [9] was no less than 68.8 µM; in experiment [10], no less than 34.4 µM; in experiment [11], 4.3 µM (≈ 8 µg/mL); in experiment [12], no less than 68.8 µM; in experiment [13], no less than 68.8 µM; in [14], no less than 34.4 µM. The MIC is no less than 68.8 µM in experiment [15]; no less than 68.8 µM in experiment [16]; no less than 68.8 µM in experiment [17]; no less than 68.8 µM in [18]; no less than 68.8 µM in [19]; greater than 68.8 µM in experiment [20]. In addition, the MIC is no less than 68.8 µM in [21]; no less than 68.8 µM in experiment [22]; no less than 68.8 µM in experiment [23]; no less than 68.8 µM in experiment [24]; 8.61 µM (≈ 16 µg/mL) in [25]; no less than 68.8 µM in [26]. In addition, the MIC is no less than 68.8 µM in experiment [27]; no less than 34.4 µM in experiment [28]; no less than 68.8 µM in experiment [29]; no less than 68.8 µM in [30]; 8.61 µM (≈ 16 µg/mL) in experiment [31]; 1.08 µM (≈ 2 µg/mL) in [32]. Besides, the MIC in experiment [33] stood at 8.61 µM (≈ 16 µg/mL).
Regarding `CC[C@H](C)[C@H](NC(=O)[C@H](CCCCN)NC(=O)[C@H](C)NC(=O)[C@H](CCCN=C(N)N)NC(=O)[C@H](CC(C)C)NC(=O)[C@H](CCCN=C(N)N)NC(=O)[C@@H](NC(=O)[C@H](CCCCN)NC(=O)[C@@H](NC(=O)[C@H](CCCCN)NC(=O)[C@H](C)NC(=O)[C@H](CCCN=C(N)N)NC(=O)[C@H](CC(C)C)NC(=O)[C@H](CCCCN)NC(=O)[C@H](Cc1ccccc1)NC(=O)CNC(=O)[C@@H](N)CCSC)[C@@H](C)CC)C(C)C)C(=O)N[C@@H](CCCCN)C(=O)N[C@@H](CC(C)C)C(=O)O` [MGFKLRAKIKVRLRAKIKL], the MIC in [1] was 28.2 µM (≈ 64 µg/mL); in [2] it was 28.2 µM (≈ 64 µg/mL); in [3], 28.2 µM (≈ 64 µg/mL); in [4] it was 28.2 µM (≈ 64 µg/mL); in [5], 1.76 µM (≈ 4 µg/mL); in experiment [6], greater than 28.2 µM. The MIC in experiment [7] and in experiment [8] was 28.2 µM (≈ 64 µg/mL) each time.
In the case of `CC[C@H](C)[C@H](NC(=O)[C@H](Cc1cnc[nH]1)NC(=O)[C@H](Cc1cnc[nH]1)NC(=O)[C@@H](NC(=O)[C@@H](NC(=O)[C@H](CCCCN)NC(=O)[C@@H](NC(=O)[C@@H](NC(=O)[C@H](CCCCN)NC(=O)[C@H](Cc1cnc[nH]1)NC(=O)[C@H](Cc1ccccc1)NC(=O)[C@H](C)NC(=O)[C@H](CO)NC(=O)[C@H](CC(C)C)NC(=O)[C@@H](N)C(C)C)C(C)C)[C@@H](C)CC)[C@@H](C)CC)[C@@H](C)CC)C(=O)N[C@@H](CO)C(=O)N[C@@H](Cc1cnc[nH]1)C(=O)N[C@@H](Cc1ccccc1)C(=O)O` [VLSAFHKVIKIIHHISHF], the MIC in experiment [9] was 7.52 µM (≈ 16 µg/mL); in [10], 7.52 µM (≈ 16 µg/mL); in [11], 1.88 µM (≈ 4 µg/mL); in [12], no less than 60.2 µM; in experiment [13] it was 3.76 µM (≈ 8 µg/mL); in experiment [14], 15 µM (≈ 32 µg/mL). Further, the MIC in experiment [15] is 15 µM (≈ 32 µg/mL); in experiment [16] it was no less than 60.2 µM; in [17] it was no less than 60.2 µM; in [18], no less than 60.2 µM; in experiment [19], no less than 60.2 µM; in experiment [20], greater than 60.2 µM. Also, the MIC in [21] is no less than 60.2 µM; in [22], no less than 60.2 µM; in experiment [23], no less than 60.2 µM; in experiment [24] it was no less than 60.2 µM; in [25], 7.52 µM (≈ 16 µg/mL); in experiment [26], 3.76 µM (≈ 8 µg/mL). Moreover, the MIC is no less than 60.2 µM in experiment [27]; no less than 60.2 µM in [28]; no less than 60.2 µM in [29]; no less than 60.2 µM in experiment [30]; 15 µM (≈ 32 µg/mL) in [31]; 1.88 µM (≈ 4 µg/mL) in experiment [32]. Also, the MIC in experiment [33] worked out at 15 µM (≈ 32 µg/mL).
Take `CC[C@H](C)[C@H](NC(=O)[C@H](CCCCN)NC(=O)[C@H](CCC(N)=O)NC(=O)CNC(=O)[C@@H](NC(=O)[C@H](CCCCN)NC(=O)[C@H](CCCCN)NC(=O)[C@H](CC(C)C)NC(=O)[C@H](CCCCN)NC(=O)[C@H](CCC(=O)O)NC(=O)[C@H](CCCCN)NC(=O)[C@@H](NC(=O)[C@H](CCCCN)NC(=O)[C@H](CC(N)=O)NC(=O)[C@H](CCCN=C(N)N)NC(=O)[C@H](Cc1ccccc1)NC(=O)[C@H](CCCCN)NC(=O)[C@H](CCCN=C(N)N)NC(=O)[C@H](CC(C)C)NC(=O)[C@H](CCCN=C(N)N)NC(=O)[C@H](CCCCN)NC(=O)[C@@H](N)CCCN=C(N)N)[C@@H](C)CC)[C@@H](C)CC)C(=O)O` [RKRLRKFRNKIKEKLKKIGQKI]: the MIC was 1.42 µM (≈ 4 µg/mL) in the experiment with Pseudomonas aeruginosa, 4.03 µM (≈ 11.3 µg/mL) in experiment [34] and 2.01 µM (≈ 5.66 µg/mL) in experiment [35].
